{"source": "patent US20040115160A1", "about": "“Quaternary ammonium esters for disinfection and preservation” (priority 2002, published 2004)", "key": {"[1]": {"system": "Acanthamoeba polyphaga strain Ros cysts", "assay": "Acanthamoeba contact lens disinfectant challenge test assay", "assay_type": "cell-based", "conditions": "25 ppm", "experimental": "Acanthamoeba polyphaga strain Ros were used in this study. Trophozoites were maintained at 30° C. in an axenic broth medium composed of 20.0 g Biosate™ (Becton Dickinson, United Kingdom), 5.0 g glucose, 0.3 g KH2PO4, 10 μg vitamin B12 and 15.0 mg L-methionine per litre of deionized water. The pH was adjusted to 6.5-6.6 with 1 M NaOH before autoclaving at 121° C. for 12 minutes. Penicillin and streptomycin were added to a final concentration of 150 μ/ml before use.\nCysts were prepared from trophozoite cultures using the axenic medium supplemented with 50 mM MgCl2. The encystment medium was inoculated with approximately 2×10^5 /ml trophoxoites for culture at 30° C. in a shaking incubator (100 rpm) for 7 days. Cells were enumerated using haemocytometer counting.\nThe challenge test assay protocol, as described by R. Hughes and S. Kilvington, Comparison of Hydrogen Peroxide Contact Lens Disinfection Systems and Solutions Against Acanthamoeba Polyphaga, Antimicrob. Agents Chemother. 45: 2038-2043, (2001), is set forth in detail below. The number of surviving organisms was calculated as described by L. J. Reed and H. Muench, A Simple Method for Estimating Fifty Percent Endpoints, Am. J. Hyg., 27: 493-497, (1938). Statistical analysis of the data was by One Way Analysis Of Variance (ANOVA).\n1. Fifty ml polypropylene centrifuge tubes were aged overnight with 15 ml of disinfectant solution, i.e., ReNue™ 02 (Bausch & Lomb, Rochester, N.Y.). The tubes were then drained, the disinfectant solution discarded, and refilled with 10 ml of fresh disinfectant solution for testing.\n2. To a flat-bottomed, 96 well microtitre plate having 8 columns labelled “A” through “H”, 180 μl of neutralizer, i.e., 0.1 percent Tween™ 80 (Baker, Inc., Phillipsburg, N.J.) in one-quarter strength Ringer's solution for biguanide based disinfectants, was added to the outer wells of columns A and H. 180 μl of one-quarter strength Ringer's solution was then added to the remaining inner wells of columns B through G.\n3. Amoebae were adjusted to 5×10^6 /ml in one-quarter strength Ringer's solution and 100 μl (5×10^5) was added to 10 ml of disinfectant (5×10^4 /ml) or saline control.\n4. At time intervals of 0, 1, 2, 3, 4, 6 and 24 hours:\ni. vortexed tubes 5 seconds;\nii. in quadruplet, removed 20 μl (1000 cells) and added to neutralizer wells for the given time-point (i.e., column A, rows 9-12) and made serial 10-fold dilutions across the microtitre plate (i.e., to column D, rows 9-12); and\niii. repeated for each time point.\n5. One drop of live E. coli from 3 ml pastette (25 μl of approximately 5×10^7 bacteria/ml) was then added to each well.\n6. The plate was then incubated at 32° C. for up to 7 days.\n7. The plate was inspected daily for 7 days for the presence of amoebal growth, either trophozoite replication or excystment and trophozoite replication, in the wells.\n8. The number of surviving organisms was then estimated at each time interval by Reed and Muench computation and set forth below in Table 3."}}, "note": "Counter-ions that a name gives are not always drawn."}
{"molecule": "CCCCCCCCCCCCCCCC(=O)OCCC[N+](C)(C)C", "note": "[Compound 6, N-palmitoyloxypropyl-N,N,N-trimethylammonium iodide]", "values": [{"measurement": "Amoebae Log Kill, Cysts", "setting": "[1]; 1 Hr.", "value": 0.46, "unit": "Log"}, {"measurement": "Amoebae Log Kill, Cysts", "setting": "[1]; 4 Hr.", "value": 3.54, "unit": "Log"}]}
{"molecule": "CCCCCCCCCCCCCC(=O)OCCC[N+](C)(C)CCCCCC", "note": "[Compound 12, N-myristoyloxypropyl-N,N-dimethyl-N-hexylammonium iodide]", "values": [{"measurement": "Amoebae Log Kill, Cysts", "setting": "[1]; 1 Hr.", "value": 3.54, "unit": "Log"}, {"measurement": "Amoebae Log Kill, Cysts", "setting": "[1]; 4 Hr.", "value": 3.54, "unit": "Log"}]}
{"molecule": "CCCCCCCCCCCCCC(=O)OCCC[N+](C)(C)CCC", "note": "[Compound 9, N-myristoyloxypropyl-N,N-dimethyl-N-propylammonium iodide]", "values": [{"measurement": "Amoebae Log Kill, Cysts", "setting": "[1]; 1 Hr.", "value": 3.69, "unit": "Log"}, {"measurement": "Amoebae Log Kill, Cysts", "setting": "[1]; 4 Hr.", "value": 4, "unit": "Log"}]}
{"molecule": "CCCCCCCCCCCCCC(=O)OCCOCC[N+](C)(C)C", "note": "(as salt: iodide) [Compound 15, N-myristoyloxyethoxyethyl-N,N,N-trimethylammonium iodide]", "values": [{"measurement": "melting point", "value": "92 to 94", "unit": "°C"}]}
{"molecule": "CCCCCCCCCCCCCC(=O)OCCC[N+](C)(C)CCCCC", "note": "[Compound 11, N-myristoyloxypropyl-N,N-dimethyl-N-pentylammonium iodide]", "values": [{"measurement": "Amoebae Log Kill, Cysts", "setting": "[1]; 1 Hr.", "value": 3.69, "unit": "Log"}, {"measurement": "Amoebae Log Kill, Cysts", "setting": "[1]; 4 Hr.", "value": 3.69, "unit": "Log"}]}
{"molecule": "CCCCCCCCCCCCCC(=O)OCCC[N+](C)(C)Cc1ccccc1", "note": "(as salt: chloride) [Compound 1, N-myristoyloxypropyl-N-benzyl-N,N-dimethylammonium chloride]", "values": [{"measurement": "melting point", "value": "93 to 95", "unit": "°C"}]}
{"molecule": "CCCCCCCCCCCCCCCC(=O)OCCC[N+](C)(C)C", "note": "(as salt: iodide) [Compound 6, N-palmitoyloxypropyl-N,N,N-trimethylammonium iodide]", "values": [{"measurement": "melting point", "value": "116 to 118", "unit": "°C"}]}
{"molecule": "CCCCCCCCCCCCCC(=O)OCCC[N+](C)(C)CC", "note": "[Compound 8, N-myristoyloxypropyl-N,N-dimethyl-N-ethylammonium iodide]", "values": [{"measurement": "Amoebae Log Kill, Cysts", "setting": "[1]; 1 Hr.", "value": 1, "unit": "Log"}, {"measurement": "Amoebae Log Kill, Cysts", "setting": "[1]; 4 Hr.", "value": 4, "unit": "Log"}]}
{"molecule": "CCCCCCCCCCCCCC(=O)OCCC[N+](C)(C)C", "note": "(as salt: iodide) [Compound 5, N-myristoyloxypropyl-N,N,N-trimethylammonium iodide]", "values": [{"measurement": "melting point", "value": "118 to 120", "unit": "°C"}]}
{"molecule": "CCCCCCCC(=O)OCCC[N+](C)(C)C", "note": "(as salt: iodide) [Compound 2, N-capryloyloxypropyl-N,N,N-trimethylammonium iodide]", "values": [{"measurement": "melting point", "value": "107 to 109", "unit": "°C"}]}
{"molecule": "CCCCCCCCCCCC(=O)OCCC[N+](C)(C)C", "note": "(as salt: iodide) [Compound 4, N-lauroyloxypropyl-N,N,N-trimethylammonium iodide]", "values": [{"measurement": "melting point", "value": "121 to 124", "unit": "°C"}]}
